Test results published in patent publication US20230033285A1, “Protease Inhibitors for Treatment of Coronavirus Infections” (The Scripps Research Institute, priority 2021, published 2023).

These compounds were tested on SARS-CoV-2 (assay: microbe, parasite or virus in culture). Conditions: Severe acute respiratory syndrome coronavirus 2, HeLa-ACE2, 24 h, read-out: EC50, μM (Hela).
Assay type: cell-based

SMILES | EC50 [µM]
CC1(C)[C@@H]2[C@@H](C(=O)N[C@H](C=O)C[C@@H]3CCNC3=O)N(C(=O)COc3ccc(OC(F)(F)F)cc3)C[C@@H]21 [Compound 36, (1R,2S,5S)-6,6-dimethyl-N-((S)-1-oxo-3-((S)-2-oxopyrrolidin-3-yl)propan-2-yl)-3-(2-(4-(trifluoromethoxy)phenoxy)acetyl)-3-azabicyclo[3.1.0]hexane-2-carboxamide] | 0.2 to 0.5

Same assay, conditions: Severe acute respiratory syndrome coronavirus 2; HeLa-ACE2 cells infected with SARS-CoV-2, 24 h, immunofluorescence of infected cells; read-out: EC50, μM (Hela)

SMILES | EC50 [µM]
CC(C)(C)NC(=O)C(=O)N1C[C@@H]2CCC[C@@H]2[C@H]1C(=O)N[C@@H](C[C@@H]1CCNC1=O)C(=O)CO [Compound 31, (1S,3aR,6aS)-2-(2-(tert-butylamino)-2-oxoacetyl)-N-((S)-4-hydroxy-3-oxo-1-((S)-2-oxopyrrolidin-3-yl)butan-2-yl)octahydrocyclopenta[c]pyrrole-1-carboxamide] | > 1
CC(C)(C)NC(=O)C(=O)N1C[C@@H]2CCC[C@@H]2[C@H]1C(=O)N[C@@H](C[C@@H]1CCCNC1=O)C(=O)CO [Compound 32, (1S,3aR,6aS)-2-(2-(tert-butylamino)-2-oxoacetyl)-N-((S)-4-hydroxy-3-oxo-1-((S)-2-oxopiperidin-3-yl)butan-2-yl)octahydrocyclopenta[c]pyrrole-1-carboxamide] | 0.5 to 1
O=C(Nc1ccccc1F)C(=O)N1C[C@@H]2CCC[C@@H]2[C@H]1C(=O)N[C@@H](C[C@@H]1CCCNC1=O)C(=O)CO [Compound 33, (1S,3aR,6aS)-2-(2-((2-fluorophenyl)amino)-2-oxoacetyl)-N-((S)-4-hydroxy-3-oxo-1-((S)-2-oxopiperidin-3-yl)butan-2-yl)octahydrocyclopenta[c]pyrrole-1-carboxamide] | 0.05 to 0.2
CC(C)C[C@H](NC(=O)C(=O)Nc1ccccc1F)C(=O)N[C@@H](C[C@@H]1CCCCNC1=O)C(=O)CO [Compound 34, N^1-(2-fluorophenyl)-N^2-((S)-1-(((S)-4-hydroxy-3-oxo-1-((S)-2-oxoazepan-3-yl)butan-2-yl)amino)-4-methyl-1-oxopentan-2-yl)oxalamide] | > 1
COc1cccc2[nH]c(C(=O)N[C@@H](CC(C)C)C(=O)N[C@H](C=O)C[C@@H]3CCNC3=O)cc12 [Compound 35, 4-methoxy-N-((S)-4-methyl-1-oxo-1-(((S)-1-oxo-3-((S)-2-oxopyrrolidin-3-yl)propan-2-yl)amino)pentan-2-yl)-1H-indole-2-carboxamide] | > 1
CC(C)C[C@H](NC(=O)C(=O)Nc1ccccc1)C(=O)N[C@H](C=O)C[C@@H]1CCNC1=O [Compound 37, N^1-((S)-4-methyl-1-oxo-1-(((S)-1-oxo-3-((S)-2-oxopyrrolidin-3-yl)propan-2-yl)amino)pentan-2-yl)-N^2-phenyloxalamide] | > 1
Cc1ccccc1NC(=O)C(=O)N[C@@H](CC(C)C)C(=O)N[C@H](C=O)C[C@@H]1CCNC1=O [Compound 38, N^1-((S)-4-methyl-1-oxo-1-(((S)-1-oxo-3-((S)-2-oxopyrrolidin-3-yl)propan-2-yl)amino)pentan-2-yl)-N^2-(o-tolyl)oxalamide] | 0.05 to 0.2
CC(C)C[C@H](NC(=O)C(=O)Nc1ccccc1F)C(=O)N[C@H](C=O)C[C@@H]1CCNC1=O [Compound 39, N^1-(2-fluorophenyl)-N^2-((S)-4-methyl-1-oxo-1-(((S)-1-oxo-3-((S)-2-oxopyrrolidin-3-yl)propan-2-yl)amino)pentan-2-yl)oxalamide] | 0.05 to 0.2
O=C[C@H](C[C@@H]1CCNC1=O)NC(=O)[C@H](CC1CCCCC1)NC(=O)C(=O)Nc1ccccc1F [Compound 40, N^1-((S)-3-cyclohexyl-1-oxo-1-(((S)-1-oxo-3-((S)-2-oxopyrrolidin-3-yl)propan-2-yl)amino)propan-2-yl)-N^2-(2-fluorophenyl)oxalamide] | 0.05 to 0.2
CC(C)C[C@H](NC(=O)C(=O)Nc1ccccc1F)C(=O)N[C@H](C=O)C[C@@H]1CCCNC1=O [Compound 41, N^1-(2-fluorophenyl)-N^2-((S)-4-methyl-1-oxo-1-(((S)-1-oxo-3-((S)-2-oxopiperidin-3-yl)propan-2-yl)amino)pentan-2-yl)oxalamide] | 0.05 to 0.2
CC(C)C[C@H](NC(=O)C(=O)NC1CCCCC1)C(=O)N[C@H](C=O)C[C@@H]1CCNC1=O [Compound 42, N^1-cyclohexyl-N^2-((S)-4-methyl-1-oxo-1-(((S)-1-oxo-3-((S)-2-oxopyrrolidin-3-yl)propan-2-yl)amino)pentan-2-yl)oxalamide] | 0.5 to 1
CC(C)C[C@H](NC(=O)C(=O)NC1(C)CC1)C(=O)N[C@H](C=O)C[C@@H]1CCNC1=O [Compound 43, N^1-((S)-4-methyl-1-oxo-1-(((S)-1-oxo-3-((S)-2-oxopyrrolidin-3-yl)propan-2-yl)amino)pentan-2-yl)-N^2-(1-methylcyclopropyl)oxalamide] | > 1
O=C[C@H](C[C@@H]1CCNC1=O)NC(=O)[C@@H]1[C@H]2CCC[C@H]2CN1C(=O)C(=O)Nc1ccccc1F [Compound 44, (1S,3aR,6aS)-2-(2-((2-fluorophenyl)amino)-2-oxoacetyl)-N-((S)-1-oxo-3-((S)-2-oxopyrrolidin-3-yl)propan-2-yl)octahydrocyclopenta[c]pyrrole-1-carboxamide] | > 1
O=C[C@H](C[C@@H]1CCCNC1=O)NC(=O)[C@@H]1[C@H]2CCC[C@H]2CN1C(=O)COc1ccc(Cl)cc1Cl [Compound 45, (1S,3aR,6aS)-2-(2-(2,4-dichlorophenoxy)acetyl)-N-((S)-1-oxo-3-((S)-2-oxopiperidin-3-yl)propan-2-yl)octahydrocyclopenta[c]pyrrole-1-carboxamide] | 0.05 to 0.2
CC(C)(C)NC(=O)C(=O)N1C[C@H]2[C@@H]([C@H]1C(=O)N[C@H](C=O)C[C@@H]1CCCNC1=O)C2(C)C [Compound 46, (1R,2S,5S)-3-(2-(tert-butylamino)-2-oxoacetyl)-6,6-dimethyl-N-((S)-1-oxo-3-((S)-2-oxopiperidin-3-yl)propan-2-yl)-3-azabicyclo[3.1.0]hexane-2-carboxamide] | > 1
CC(C)(NC(=O)C(=O)N1C[C@@H]2CCC[C@@H]2[C@H]1C(=O)N[C@H](C=O)C[C@@H]1CCCNC1=O)C(F)(F)F [Compound 47, (1S,3aR,6aS)-2-(2-oxo-2-((1,1,1-trifluoro-2-methylpropan-2-yl)amino)acetyl)-N-((S)-1-oxo-3-((S)-2-oxopiperidin-3-yl)propan-2-yl)octahydrocyclopenta[c]pyrrole-1-carboxamide] | 0.5 to 1
CC1(C)[C@@H]2[C@@H](C(=O)N[C@H](C=O)C[C@@H]3CCCNC3=O)N(C(=O)C(=O)NC3CCCCC3)C[C@@H]21 [Compound 48, (1R,2S,5S)-3-(2-(cyclohexylamino)-2-oxoacetyl)-6,6-dimethyl-N-((S)-1-oxo-3-((S)-2-oxopiperidin-3-yl)propan-2-yl)-3-azabicyclo[3.1.0]hexane-2-carboxamide] | 0.5 to 1
CC(C)C[C@H](NC(=O)C(=O)Nc1ccccc1F)C(=O)N[C@H](C#N)C[C@@H]1CCNC1=O [Compound 58] | 0.5 to 1
CC1(C)[C@@H]2[C@@H](C(=O)N[C@H](C#N)C[C@@H]3CCNC3=O)N(C(=O)C(=O)Nc3ccccc3F)C[C@@H]21 [Compound 59, (1R,2S,5S)-N-((S)-1-cyano-2-((S)-2-oxopyrrolidin-3-yl)ethyl)-3-(2-((2-fluorophenyl)amino)-2-oxoacetyl)-6,6-dimethyl-3-azabicyclo[3.1.0]hexane-2-carboxamide] | > 1
